Measured values taken from US4393050A, “Analogs of extended N-terminal somatostatin” (The Salk Institute for Biological Studies, priority 1981, dated 1983).
Where two headings read alike, the source gives them in different places. Residues, ends and D or L forms follow the SMILES beside them.

Assays:
[1] = tested on: cells of rat pituitary glands; format: cell-based
Experimental: To determine the effectiveness of the peptides to inhibit the release of growth hormone, in vitro radioimmunoassays are carried out using the SS-28 analogs in side-by-side comparison with equimolar concentrations of somotostatin-14 having a known effectiveness to inhibit the release of growth hormone induced by the application of isobutyl methyl xanthine to pituitary cells. Cultures are used which include cells of rat pituitary glands removed some four to five days previously in a system that minimizes enzymatic degradation, generally following the procedure set forth in Vale et al., Methods in Enzymology, Hormones and Cyclic Nucleotides (1975) Vol. 37, p. 82. Both cultures of a defined standard medium and cultures which are considered optimal for the secretion of growth hormone, as a result of having additions of either 2% or 10% of serum from a foetal calf, are used for the comparative testing.

[2] = tested on: glucagon secretion; format: in vivo, rats
Experimental: (§1) In vivo experiments are carried out with the SS-28 analogs, using the procedure described in Brown et al., Metabolism (1976) Vol. 25, pp. 1501-1503, to determine the potency, relative to somatostatin-14 to inhibit the secretion of glucagon and insulin stimulated by the administration of arginine to groups of six rats.

[3] = tested on: insulin secretion; format: in vivo, rats
Experimental: as §1

[4] = juvenile-type diabetics, complete absence of circulating insulin; cited from earlier work
[5] = rats, arginine-stimulated secretion, SS-14 = 1

Row | SMILES | In Vitro Growth Hormone (potency to inhibit release, relative to SS-14) [1] | In Vivo Glugacon (potency to inhibit secretion, relative to SS-14) ([2]; rat, in vivo) | In Vivo Insulin (potency to inhibit secretion, relative to SS-14) ([3]; rat, in vivo) | In Vitro Growth Hormone (potency to inhibit release, relative to SS-14) ([1]; rat pituitary cell cultures, isobutyl methyl xanthine-induced GH release, SS-14 = 1) | diminution of fasting hyperglycemia [4] [%] | In Vivo Glugacon (potency to inhibit secretion, relative to SS-14) [2, 5] | In Vivo Insulin (potency to inhibit secretion, relative to SS-14) [3, 5]
1 | CC(C)C[C@H](NC(=O)[C@H](C)NC(=O)[C@@H]1CCCN1C(=O)[C@H](CC(N)=O)NC(=O)[C@H](CO)NC(=O)[C@H](CC(N)=O)NC(=O)[C@H](C)NC(=O)[C@@H](N)CO)C(=O)N[C@@H](C)C(=O)N1CCC[C@H]1C(=O)N[C@@H](CCCNC(=N)N)C(=O)N[C@@H](CCC(=O)O)C(=O)N[C@@H](CCCNC(=N)N)C(=O)N[C@@H](CCCCN)C(=O)N[C@@H](C)C(=O)NCC(=O)N[C@H]1CSSC[C@@H](C(=O)O)NC(=O)[C@H](CO)NC(=O)[C@H]([C@@H](C)O)NC(=O)[C@H](Cc2ccc(O)cc2)NC(=O)[C@H]([C@@H](C)O)NC(=O)[C@H](CCCCN)NC(=O)[C@@H](Cc2c[nH]c3ccccc23)NC(=O)[C@H](Cc2ccccc2)NC(=O)[C@H](Cc2ccccc2)NC(=O)[C@H](CC(N)=O)NC(=O)[C@H](CCCCN)NC1=O [Peptide 1, [Leu^8, D-Trp^22, Tyr^25]--SS-28] (HELM PEPTIDE1{S.A.N.S.N.P.A.L.A.P.R.E.R.K.A.G.C.K.N.F.F.[dW].K.T.Y.T.S.C}$PEPTIDE1,PEPTIDE1,17:R3-28:R3$$$V2.0) | 4.84 | – | – | – | – | – | –
2 | CSCC[C@H](NC(=O)[C@H](C)NC(=O)[C@@H]1CCCN1C(=O)[C@H](CC(N)=O)NC(=O)[C@H](CO)NC(=O)[C@H](CC(N)=O)NC(=O)[C@H](C)NC(=O)[C@@H](N)CO)C(=O)N[C@@H](C)C(=O)N1CCC[C@H]1C(=O)N[C@@H](CCCNC(=N)N)C(=O)N[C@@H](CCC(=O)O)C(=O)N[C@@H](CCCNC(=N)N)C(=O)N[C@@H](CCCCN)C(=O)N[C@@H](C)C(=O)NCC(=O)N[C@H]1CSSC[C@@H](C(=O)O)NC(=O)[C@@H](CO)NC(=O)[C@H]([C@@H](C)O)NC(=O)[C@H](Cc2ccccc2)NC(=O)[C@H]([C@@H](C)O)NC(=O)[C@H](CCCCN)NC(=O)[C@@H](Cc2c[nH]c3ccccc23)NC(=O)[C@H](Cc2ccccc2)NC(=O)[C@H](Cc2ccccc2)NC(=O)[C@H](CCCCN)NC1=O [Peptide 3, desAsn^19 [D-Trp^22, D-Ser^27]--SS-28] (HELM PEPTIDE1{S.A.N.S.N.P.A.M.A.P.R.E.R.K.A.G.C.K.F.F.[dW].K.T.F.T.[dS].C}$PEPTIDE1,PEPTIDE1,17:R3-27:R3$$$V2.0) | 0.1 | 1 | 145 | – | – | – | –
3 | CSCC[C@H](NC(=O)[C@H](C)NC(=O)[C@@H]1CCCN1C(=O)[C@H](CC(N)=O)NC(=O)[C@H](CO)NC(=O)[C@H](CC(N)=O)NC(=O)[C@H](C)NC(=O)[C@@H](N)CO)C(=O)N[C@@H](C)C(=O)N1CCC[C@H]1C(=O)N[C@@H](CCCNC(=N)N)C(=O)N[C@@H](CCC(=O)O)C(=O)N[C@@H](CCCNC(=N)N)C(=O)N[C@@H](CCCCN)C(=O)N[C@@H](C)C(=O)NCC(=O)N[C@H]1CSSC[C@H](C(=O)O)NC(=O)[C@H](CO)NC(=O)[C@H](Cc2ccccc2)NC(=O)[C@H]([C@@H](C)O)NC(=O)[C@H](CCCCN)NC(=O)[C@@H](Cc2c[nH]c3ccccc23)NC(=O)[C@H](Cc2ccccc2)NC(=O)[C@H](Cc2ccccc2)NC1=O [Peptide 4, desAA^18,19,26 [D-Trp^22,D-Cys^28]--SS-28] (HELM PEPTIDE1{S.A.N.S.N.P.A.M.A.P.R.E.R.K.A.G.C.F.F.[dW].K.T.F.S.[dC]}$PEPTIDE1,PEPTIDE1,17:R3-25:R3$$$V2.0) | 1.51 | 14 | 18 | – | – | – | –
4 | C[C@H](N)C(=O)NCC(=O)N[C@H]1CSSC[C@@H](C(=O)O)NC(=O)[C@H](CO)NC(=O)[C@H]([C@@H](C)O)NC(=O)[C@H](Cc2ccccc2)NC(=O)[C@H]([C@@H](C)O)NC(=O)[C@H](CCCCN)NC(=O)[C@H](Cc2c[nH]c3ccccc23)NC(=O)[C@H](Cc2ccccc2)NC(=O)[C@H](Cc2ccccc2)NC(=O)[C@H](CC(N)=O)NC(=O)[C@H](CCCCN)NC1=O [SS-14, somatostatin] | – | – | – | 1 | ≤ 50 | 1 | 1
